Laboratory results: PMC5267425, “Identification of small molecule modulators of HIV-1 Tat and Rev protein accumulation” (Retrovirology, 2017)

System: cellular gene expression in HeLa rtTA HIV∆Mls cells

## Cc1cc(NCc2cccnc2)n2ncc(-c3ccc(Cl)cc3)c2n1 [Compound 791, 3-(4-chlorophenyl)-5-methyl-N-(3-pyridinylmethyl)pyrazolo[1,5-a]pyrimidin-7-amine]
  GNA13 expression fold change: 1.223
  GNG10 expression fold change: 0.817
  GNL1 expression fold change: 1.145
  GOLGA5 expression fold change: 1.153
  GOLGA9P Mean fold change: 1.884
  GORAB expression fold change: 1.233
  GORASP1 expression fold change: 0.859
  GOSR1 expression fold change: 1.352
  GPC5 expression fold change: 1.250
  GPCPD1 Mean fold change: 2.287
  GPD1L expression fold change: 1.252
  GPR176 expression fold change: 0.771
  GPT2 Mean fold change: 2.731
  GRAMD1C expression fold change: 1.186
  GRB10 Mean fold change: 1.714
  GRINL1A Mean fold change: 1.542
  GRPEL2 Mean fold change: 1.903
  GTF2H3 expression fold change: 1.322
  GTF3C1 expression fold change: 0.813
  H3F3A expression fold change: 0.746
  HACL1 expression fold change: 0.803
  HADHA Mean fold change: 1.441
  HADHB Mean fold change: 1.600
  HAUS3 expression fold change: 1.330
  HAUS4 expression fold change: 1.250
  HAUS6 Mean fold change: 1.910
  HAX1 Mean fold change: 1.624
  HDAC1 expression fold change: 0.825
  HDHD2 expression fold change: 1.223
  HEBP1 expression fold change: 1.199
  HECTD1 expression fold change: 1.231
  HEG1 expression fold change: 0.638
  HIF1A expression fold change: 1.219
  HINT3 expression fold change: 1.199
  HIPK1 expression fold change: 1.092
  HIST1H3B expression fold change: 0.670
  HJURP expression fold change: 0.874
  HMGB3 expression fold change: 0.753
  HMGN3 expression fold change: 0.687
  HNRNPH2 expression fold change: 0.704
  HPS3 expression fold change: 1.235
  HRSP12 expression fold change: 1.297
  HSD17B1 expression fold change: 1.238
  HSPA9 Mean fold change: 2.175
  HSPB6 Mean fold change: 2.845
  HSPB8 expression fold change: 0.812
  IBTK expression fold change: 1.153
  ICAM1 Mean fold change: 1.829
  ICK expression fold change: 0.776
  ID3 expression fold change: 0.580
  IDH2 expression fold change: 0.637
  IDI1 expression fold change: 0.495
  IFNGR1 expression fold change: 1.224
  IFRD1 Mean fold change: 2.095
  IKBIP expression fold change: 0.658
  IMMT expression fold change: 1.075
  IMPA2 Mean fold change: 1.561
  INCENP expression fold change: 0.617
  INO80C expression fold change: 0.723
  INPP1 expression fold change: 1.347
  IPO13 expression fold change: 1.247
  IQCB1 expression fold change: 1.350
  ISCU Mean fold change: 1.477
  ITGA5 expression fold change: 1.145
  ITPKC expression fold change: 1.186
  IVNS1ABP expression fold change: 1.200
  JTB expression fold change: 1.203
  JUB expression fold change: 0.585
  KANK2 expression fold change: 0.798
  KCNJ2 Mean fold change: 1.873
  KCTD1 expression fold change: 1.252
  KCTD13 expression fold change: 1.373
  KCTD15 Mean fold change: 1.965
  KCTD20 expression fold change: 1.124
  KHDRBS1 expression fold change: 0.750
  KHSRP expression fold change: 0.864
  KIAA0232 expression fold change: 1.232
  KIAA0562 expression fold change: 1.119
  KIAA0649 expression fold change: 1.279
  KIAA0753 expression fold change: 1.283
  KIAA0895 expression fold change: 1.129
  KIAA1430 expression fold change: 1.140
  KIAA1826 expression fold change: 1.191
  KIAA2013 expression fold change: 0.927
  KIF3B expression fold change: 0.839
  KIF5C expression fold change: 0.782
  KIF11 expression fold change: 0.660
  KIF18B expression fold change: 0.771
  KIF20B expression fold change: 0.622
  KIFC1 expression fold change: 0.753
  KITLG expression fold change: 0.707
  KLF9 expression fold change: 0.665
  KLF11 Mean fold change: 1.487
  KLHDC3 expression fold change: 0.728
  KLHL35 Mean fold change: 1.651
  KPNA2 expression fold change: 0.620
  KRR1 expression fold change: 1.251
  LACE1 Mean fold change: 1.553
  LAPTM4B expression fold change: 0.781
  LARP6 Mean fold change: 3.094
  LARS expression fold change: 1.394
  LASS5 expression fold change: 0.895
  LGALS9 Mean fold change: 1.949
  LGTN expression fold change: 1.255
  LHPP Mean fold change: 1.532
  LIG3 expression fold change: 1.068
  LIN7B expression fold change: 1.185
  LMO7 expression fold change: 0.663
  LONP1 Mean fold change: 2.312
  LRP5L expression fold change: 1.303
  LRPPRC expression fold change: 1.312
  LRRC8D Mean fold change: 1.472
  LRRC16A expression fold change: 0.608
  LRRC37A3 Mean fold change: 1.746
  LRRC37B Mean fold change: 1.443
  LRSAM1 expression fold change: 1.153
  LYRM2 expression fold change: 1.176
  LYSMD1 expression fold change: 1.216
  LZTR1 expression fold change: 0.877
  MAGT1 expression fold change: 0.903
  MAK16 Mean fold change: 1.459
  MAML2 expression fold change: 0.717
  MANF expression fold change: 0.731
  MAP1B Mean fold change: 3.550
  MAP3K12 expression fold change: 1.348
  MAP3K14 expression fold change: 0.532
  MAP4K4 expression fold change: 0.822
